Test results published in article PMC7187627 (Antimicrobial Agents and Chemotherapy, 2019).
“Also recorded” adds a separate entry of the source.

Assay: Safety and tolerability (adverse events, laboratory tests, ECG), multiple-ascending-dose phase 1 study
Type: in vivo
Details: for No. (%) of subjects: Alanine aminotransferase increased / No. (%) of subjects: Amylase increased / No. (%) of subjects: Anxiety / No. (%) of subjects: Arthropod bite / No. (%) of subjects: Aspartate aminotransferase increased / No. (%) of subjects: Blood bilirubin increased / No. (%) of subjects: Blood calcium increased / No. (%) of subjects: Blood potassium increased / No. (%) of subjects: Blood pressure, diastolic, decreased / No. (%) of subjects: Blood pressure, diastolic, increased / No. (%) of subjects: Blood pressure, systolic, decreased / No. (%) of subjects: Blood pressure, systolic, increased / No. (%) of subjects: Diarrhea / No. (%) of subjects: Dry skin / No. (%) of subjects: Dysgeusia / No. (%) of subjects: Ear and labyrinth disorders (system organ class) / No. (%) of subjects: Ear discomfort / No. (%) of subjects: Erythema / No. (%) of subjects: Gastrointestinal disorders (system organ class) / No. (%) of subjects: General disorders and administration site conditions (system organ class) / No. (%) of subjects: Headache / No. (%) of subjects: Hemoglobin decreased / No. (%) of subjects: Infections and infestations (system organ class) / No. (%) of subjects: Infusion site thrombosis / No. (%) of subjects: Injury, poisoning, and procedural complications (system organ class) / No. (%) of subjects: Investigations (system organ class) / No. (%) of subjects: Lipase increased / No. (%) of subjects: Musculoskeletal and connective tissue disorders (system organ class) / No. (%) of subjects: Myalgia / No. (%) of subjects: Nervous system disorders (system organ class) / No. (%) of subjects: Oropharyngeal pain / No. (%) of subjects: Psychiatric disorders (system organ class) / No. (%) of subjects: Respiratory, thoracic, and mediastinal disorders (system organ class) / No. (%) of subjects: Skin and subcutaneous tissue disorders (system organ class) / No. (%) of subjects: Subjects with TEAEs / No. (%) of subjects: Throat irritation / No. (%) of subjects: Upper respiratory tract infection / No. (%) of subjects: White blood cell count increased: all TEAEs
Source text: Subjects were monitored closely with serial physical examinations, blood evaluations, and 12-lead ECGs. Subjects underwent safety laboratory testing, including measurement of blood cell counts (white blood cell [WBC] with differential, hemoglobin, and platelets), serum chemistry (sodium, potassium, chloride, calcium, bicarbonate, glucose, creatinine, blood urea nitrogen [BUN], creatine kinase [CK], aspartate aminotransferase [AST], alanine aminotransferase [ALT], alkaline phosphatase [ALP], total bilirubin, protein, albumin, amylase, and lipase) and urinalysis (protein, blood, and glucose). Study halting criteria had been established and were reviewed by an independent safety monitor (ISM) and the Safety Monitoring Committee (SMC) prior to proceeding with dosing within a cohort or to the next cohort.
The safety population included all subjects who received at least one dose of the study drug. The safety and tolerability of CRS3123 were evaluated by the sequential review of reported adverse events (AEs), changes from baseline in physical examination findings, vital sign measurements, safety laboratory tests (hematology, clinical chemistry, and urinalysis), and key 12-lead ECG findings. All safety assessments were summarized with descriptive statistics or frequency counts.
The period of observation for AE reporting began on day 1 at the time of study drug administration and continued through the final visit.
All AEs were coded to system organ class (SOC) and preferred term (PT) using the Medical Dictionary for Regulatory Activities (MedDRA), version 17.0 (https://www.meddra.org/). A treatment-emergent AE (TEAE) was defined as any AE that occurred during the study observation period (i.e., from day 1 at the time of study drug administration through the final visit). An AE with a partial onset date was classified as a TEAE if the reported partial onset date could not definitely be identified as before the date of study drug administration. Any AE with a missing onset date or missing time on day of study drug administration was classified as a TEAE.
To count the overall number of subjects who experienced each TEAE and calculation of an occurrence rate, a subject experiencing multiple occurrences of an AE was counted only once for that PT. Similarly, if a subject experienced multiple TEAEs within the same SOC, that subject was counted once to calculate an occurrence rate for the SOC. To count the number of subjects who experienced each TEAE by severity classification (mild, moderate, severe, and life-threatening) and calculate an occurrence rate, a subject experiencing multiple occurrences of an AE of the same severity was counted once in that particular severity classification for that PT. If a subject experienced multiple occurrences of an AE of differing severities, only the most severe occurrence within each PT was counted.

[1] = 200, 400, 600 mg orally twice daily for 10 days

## O=c1cc(NCCCN[C@@H]2CCOc3c(Br)cc(Br)cc32)[nH]c2ccsc12 [CRS3123]
12-lead ECG, all doses
  QTcF interval: no QTcF interval changes; also recorded: no prolongation of the QTcF interval
[1]
  deaths, serious adverse events, severe TEAEs: no serious adverse events (SAEs) or severe treatment-emergent adverse events (TEAEs) reported
  overall safety and tolerability: generally safe and well tolerated
Active groups (placebo 33.3%)
  proportion of subjects reporting at least one treatment-related AE: 12.5 % subjects
All active (n = 24)
  No. (%) of subjects: Alanine aminotransferase increased: 3 (12.5)
  No. (%) of subjects: Amylase increased: 3 (12.5)
  No. (%) of subjects: Anxiety: 1 (4.2)
  No. (%) of subjects: Arthropod bite: 1 (4.2)
  No. (%) of subjects: Aspartate aminotransferase increased: 2 (8.3)
  No. (%) of subjects: Blood bilirubin increased: 1 (4.2)
  No. (%) of subjects: Blood calcium increased: 1 (4.2)
  No. (%) of subjects: Blood potassium increased: 1 (4.2)
  No. (%) of subjects: Blood pressure, diastolic, decreased: 1 (4.2)
  No. (%) of subjects: Blood pressure, diastolic, increased: 1 (4.2)
  No. (%) of subjects: Blood pressure, systolic, decreased: 0 (0.0)
  No. (%) of subjects: Blood pressure, systolic, increased: 1 (4.2)
  No. (%) of subjects: Diarrhea: 2 (8.3)
  No. (%) of subjects: Dry skin: 1 (4.2)
  No. (%) of subjects: Dysgeusia: 1 (4.2)
  No. (%) of subjects: Ear and labyrinth disorders (system organ class): 1 (4.2)
  No. (%) of subjects: Ear discomfort: 1 (4.2)
  No. (%) of subjects: Erythema: 1 (4.2)
  No. (%) of subjects: Gastrointestinal disorders (system organ class): 2 (8.3)
  No. (%) of subjects: General disorders and administration site conditions (system organ class): 1 (4.2)
  No. (%) of subjects: Headache: 2 (8.3)
  No. (%) of subjects: Hemoglobin decreased: 4 (16.7)
  No. (%) of subjects: Infections and infestations (system organ class): 1 (4.2)
  No. (%) of subjects: Infusion site thrombosis: 1 (4.2)
  No. (%) of subjects: Injury, poisoning, and procedural complications (system organ class): 1 (4.2)
  No. (%) of subjects: Investigations (system organ class): 15 (62.5)
  No. (%) of subjects: Lipase increased: 5 (20.8)
  No. (%) of subjects: Musculoskeletal and connective tissue disorders (system organ class): 1 (4.2)
  No. (%) of subjects: Myalgia: 1 (4.2)
  No. (%) of subjects: Nervous system disorders (system organ class): 3 (12.5)
  No. (%) of subjects: Oropharyngeal pain: 1 (4.2)
  No. (%) of subjects: Psychiatric disorders (system organ class): 1 (4.2)
  No. (%) of subjects: Respiratory, thoracic, and mediastinal disorders (system organ class): 2 (8.3)
  No. (%) of subjects: Skin and subcutaneous tissue disorders (system organ class): 2 (8.3)
  No. (%) of subjects: Subjects with TEAEs: 20 (83.3)
  No. (%) of subjects: Throat irritation: 1 (4.2)
  No. (%) of subjects: Upper respiratory tract infection: 1 (4.2)
  No. (%) of subjects: White blood cell count increased: 0 (0.0)
Cohort A, 200 mg Q12h (n = 8)
  No. (%) of subjects: Alanine aminotransferase increased: 1 (12.5)
  No. (%) of subjects: Amylase increased: 1 (12.5)
  No. (%) of subjects: Anxiety: 1 (12.5)
  No. (%) of subjects: Arthropod bite: 1 (12.5)
  No. (%) of subjects: Aspartate aminotransferase increased: 0 (0.0)
  No. (%) of subjects: Blood bilirubin increased: 0 (0.0)
  No. (%) of subjects: Blood calcium increased: 0 (0.0)
  No. (%) of subjects: Blood potassium increased: 0 (0.0)
  No. (%) of subjects: Blood pressure, diastolic, decreased: 0 (0.0)
  No. (%) of subjects: Blood pressure, diastolic, increased: 0 (0.0)
  No. (%) of subjects: Blood pressure, systolic, decreased: 0 (0.0)
  No. (%) of subjects: Blood pressure, systolic, increased: 0 (0.0)
  No. (%) of subjects: Diarrhea: 0 (0.0)
  No. (%) of subjects: Dry skin: 0 (0.0)
  No. (%) of subjects: Dysgeusia: 0 (0.0)
  No. (%) of subjects: Ear and labyrinth disorders (system organ class): 1 (12.5)
  No. (%) of subjects: Ear discomfort: 1 (12.5)
  No. (%) of subjects: Erythema: 0 (0.0)
  No. (%) of subjects: Gastrointestinal disorders (system organ class): 0 (0.0)
  No. (%) of subjects: General disorders and administration site conditions (system organ class): 0 (0.0)
  No. (%) of subjects: Headache: 1 (12.5)
  No. (%) of subjects: Hemoglobin decreased: 2 (25.0)
  No. (%) of subjects: Infections and infestations (system organ class): 1 (12.5)
  No. (%) of subjects: Infusion site thrombosis: 0 (0.0)
  No. (%) of subjects: Injury, poisoning, and procedural complications (system organ class): 1 (12.5)
  No. (%) of subjects: Investigations (system organ class): 5 (62.5)
  No. (%) of subjects: Lipase increased: 1 (12.5)
  No. (%) of subjects: Musculoskeletal and connective tissue disorders (system organ class): 0 (0.0)
  No. (%) of subjects: Myalgia: 0 (0.0)
  No. (%) of subjects: Nervous system disorders (system organ class): 1 (12.5)
  No. (%) of subjects: Oropharyngeal pain: 0 (0.0)
  No. (%) of subjects: Psychiatric disorders (system organ class): 1 (12.5)
  No. (%) of subjects: Respiratory, thoracic, and mediastinal disorders (system organ class): 0 (0.0)
  No. (%) of subjects: Skin and subcutaneous tissue disorders (system organ class): 0 (0.0)
  No. (%) of subjects: Subjects with TEAEs: 8 (100.0)
  No. (%) of subjects: Throat irritation: 0 (0.0)
  No. (%) of subjects: Upper respiratory tract infection: 1 (12.5)
  No. (%) of subjects: White blood cell count increased: 0 (0.0)
Cohort B, 400 mg Q12h (n = 8)
  No. (%) of subjects: Alanine aminotransferase increased: 0 (0.0)
  No. (%) of subjects: Amylase increased: 1 (12.5)
  No. (%) of subjects: Anxiety: 0 (0.0)
  No. (%) of subjects: Arthropod bite: 0 (0.0)
  No. (%) of subjects: Aspartate aminotransferase increased: 0 (0.0)
  No. (%) of subjects: Blood bilirubin increased: 0 (0.0)
  No. (%) of subjects: Blood calcium increased: 1 (12.5)
  No. (%) of subjects: Blood potassium increased: 1 (12.5)
  No. (%) of subjects: Blood pressure, diastolic, decreased: 0 (0.0)
  No. (%) of subjects: Blood pressure, diastolic, increased: 0 (0.0)
  No. (%) of subjects: Blood pressure, systolic, decreased: 0 (0.0)
  No. (%) of subjects: Blood pressure, systolic, increased: 0 (0.0)
  No. (%) of subjects: Diarrhea: 2 (25.0)
